# Assay results taken from patent US20130072519A1, “2-PHENYL BENZOYLAMIDES” (priority 2010, published 2013).
# pIC50: −log10 of the molar value.
# What was measured:
# [1] = Human liver microsomal stability; type: in vitro ADME; conditions: Human Liver Microsomes 0.76 mg/mL, 1 μM compound, 37° C.; for Compound remaining (%) at 4 min: pH 7.4, 4 min; for Compound remaining (%) at 30 min: pH 7.4, 30 min
# Experimental: (§1) Pooled human liver or intestinal microsomes (final concentration 0.76 mg/mL) were diluted in 100 mM potassium phosphate buffer (pH 7.4) and preincubated at 37° C. The compounds of interest were dissolved in DMSO (30 mM), diluted to 100 μM in acetonitrile or methanol, and added to the microsomal incubations to achieve a final concentration of 1 μM with 1% or less final organic solvent. The mixtures were incubated for 30 min at 37° C. Aliquots were removed at predetermined times and quenched with an excess acetonitrile, containing an internal standard, on ice. Following centrifugation, the analytes were quantified by liquid chromatography-tandem mass spectrometry (LC-MS/MS). The compound remaining (%) was calculated from the analyte area ratio at the predetermined time/initial analyte area ratio at time 0×100.
# [2] = Human intestinal microsomal stability; type: in vitro ADME; conditions: Human Intestinal Microsomes 0.76 mg/mL, 1 μM compound, 37° C.; for Compound remaining (%) at 4 min: pH 7.4, 4 min; for Compound remaining (%) at 30 min: pH 7.4, 30 min
# Experimental: as §1
# [3] = system: Apolipoprotein B Secretion from HepG2 Cells; assay: Inhibition of Apolipoprotein B secretion from HepG2 cells (ELISA); type: cell-based, human; conditions: 22-24 hours incubation, ApoB ELISA, Low/High IC50 columns give the 95% confidence interval
# Experimental: Inhibition of Apolipoprotein B Secretion from HepG2 Cells
# To assess the inhibitory effect of the compounds of the invention on ApoB production, an endogenously ApoB producing cell line, HEPG2, was implemented in an in vitro ELISA assay. HEPG2 cells are plated at 25,000 per well (96-well plates) in media consisting of DMEM Low Glucose, 1% NEAA (non-essential amino acids), 10% FBS (heat inactivated), 1% L-Glutamine, and 1% Antimycotic-Antibiotic and incubated for 16-18 hours at 37° C. and 5% CO2. After the 16-18 hour incubation, a 12 point half-log serial of the inhibitor (1000 nM-0.003 nM) is prepared, and 1.5 ul of the serial dilution is added to HEPG2 cells, which have had their media decanted and replaced with 148 ul of fresh media, and the cells are incubated for 22-24 hours at 37° C. and 5% CO2. Two and a half hours before the 22-24 hour incubation period is completed, Nunc Maxisorp plates are coated with 100 ul of primary (coating) antibody (goat anti-apoB), diluting to a ratio of 1:1000 in 1% Carbonate-Bicarbonate Coating Buffer and incubated for at least 2 hours at room temperature before the primary antibody is decanted and the wells of the microplate are washed with 200 ul of washing buffer (1% PBS, 0.05% Tween20). Next, 200 ul of blocking buffer (1% PBS, 1:500 Western Block, 5 mg/ml BSA) is added to the wells of the microplate, and incubated for at least 30 mins. Following the 22-24 hours incubation period, cell plates are removed from the incubator, 20 ul of supernatant from each well is aspirated, added to a corresponding well in 96 well plate containing 140 ul of diluent (1:2-Blocking Buffer: Washing Buffer), and mixed. Then, 120 ul is aspirated from the dilutent-supernatant plate, added to the blocked Nunc Maxisorp 96 well plate, and placed at room temperature on a shaker to mix for at least 2 hours. The secondary (capture) antibody (mouse anti-human apoB) is prepared at a ratio of 1:4000, and the detection antibody (goat anti-mouse HRP conjugated antibody) at a ratio of 1:10,000. For each antibody, 100 ul is added to each well of the microplate and the microplate is incubated at room temperature for 2 hours, washing the microplates between each antibody addition. Colorimetric development is achieved by adding 50 ul of TMB reagent to each well, incubating for 5 mins at room temperature, then adding 50 ul of 2M Sulfuric Acid to each well. Absorbance at 450 nm is monitored in an Envision plate reader to measure the amount of ApoB formed.
# Results reported as average IC50, low and high IC50 range (95% confidence interval).
# [4] = Homo sapiens, HepG2, HepG2 cells
Structure (SMILES),Compound remaining (%) at 4 min [1] [%],Compound remaining (%) at 30 min [1] [%],Compound remaining (%) at 4 min [2] [%],Compound remaining (%) at 30 min [2] [%],"pIC50 [3, 4]",pIC50 ([3]; HepG2 cells)
"CCOC(=O)C1(COC(=O)Cc2ccc(NC(=O)c3ccc(C)cc3-c3ccc(C(F)(F)F)cc3)c(C(=O)N(C)C)c2)c2ccccc2C(=O)N1C (single isomer, unassigned) [Example 56, ethyl 1-({2-[3-(dimethylcarbamoyl)-4-({[5-methyl-4′-(trifluoromethyl)biphenyl-2-yl]carbonyl}amino)phenyl]acetoxy}methyl)-2-methyl-3-oxoisoindoline-1-carboxylate]",38,3,100,87,9.83,–
"CCOC(=O)C1(COC(=O)Cc2ccc(NC(=O)c3ccc(C)cc3-c3ccc(C(F)(F)F)cc3)c(C(=O)N(C)C)c2)CCc2cccnc21 (single isomer, unassigned) [Example 59, ethyl 7-({2-[3-(dimethylcarbamoyl)-4-({[5-methyl-4′-(trifluoromethyl)biphenyl-2-yl]carbonyl}amino)phenyl]acetoxy}methyl)-6,7-dihydro-5H-cyclopenta[b]pyridine-7-carboxylate]",22,1.1,102,–,9.15,–
"CCOC(=O)C1(COC(=O)Cc2ccc(NC(=O)c3ccccc3-c3ccc(OC(C)C)cc3)c(C(=O)N(C)C)c2)CCc2cccnc21 (single isomer, unassigned) [Example 60, ethyl 7-({2-[3-(dimethylcarbamoyl)-4-({[4′-isopropoxybiphenyl-2-yl)carbonyl]amino}phenyl]acetoxy}methyl)-6,7-dihydro-5H-cyclopenta[b]pyridine-7-carboxylate]",110,8.5,107,100,9.27,–
"CCOC(=O)C1(COC(=O)Cc2ccc(NC(=O)c3cccc(OC)c3-c3ccc(C(F)(F)F)cc3)c(C(=O)N(C)C)c2)CCc2cccnc21 (single isomer, unassigned) [Example 61, ethyl 7-({2-[3-(dimethylcarbamoyl)-4-({[6-methoxy-4′-(trifluoromethyl)biphenyl-2-yl]carbonyl}amino)phenyl]acetoxy}methyl)-6,7-dihydro-5H-cyclopenta[b]pyridine-7-carboxylate]",65,4.7,106,106,9.40,–
"CCOC(=O)[C@]1(COC(=O)Cc2ccc(NC(=O)c3cccc(C)c3-c3ccc(C(F)(F)F)cc3)c(C(=O)N(C)C)c2)c2ccccc2C(=O)N1C [Example 49, Ethyl (1R)-1-({2-[3-(Dimethylcarbamoyl)-4-({[6-methyl-4′-(trifluoromethyl)biphenyl-2-yl]carbonyl}amino)phenyl]acetoxy}methyl)-2-methyl-3-oxoisoindoline-1-carboxylate]",42,2.7,100,83,9.62,–
"CCOC(=O)[C@]1(COC(=O)Cc2ccc(NC(=O)c3ccccc3-c3ccc(OC(C)C)cc3)c(C(=O)N(C)C)c2)c2ccccc2C(=O)N1C [Example 50, Ethyl (1R)-1-({2-[3-(dimethylcarbamoyl)-4-{[(4′-isopropoxybiphenyl-2-yl)carbonyl]amino}phenyl]acetoxy}methyl)-2-methyl-3-oxoisoindoline-1-carboxylate]",48,3.7,100,92,9.91,–
"CCOC(=O)[C@]1(COC(=O)Cc2ccc(NC(=O)c3ccc(OC)cc3-c3ccc(C(C)(C)C)cc3)c(C(=O)N(C)C)c2)c2ccccc2C(=O)N1C [Example 69, ethyl (1R)-1-({2-[4-{[(4′-tert-butyl-5-methoxybiphenyl-2-yl)carbonyl]amino}-3-(dimethylcarbamoyl)phenyl]acetoxy}methyl)-2-methyl-3-oxoisoindoline-1-carboxylate]",–,–,–,–,9.74,–
"CCOC(=O)[C@]1(COC(=O)Cc2ccc(NC(=O)c3ccc(OC)cc3-c3ccc(C(F)(F)F)cc3)c(C(=O)N(C)C)c2)c2ccccc2C(=O)N1C [Example 70, ethyl (1R)-1-({2-[3-(dimethylcarbamoyl)-4-({[5-methoxy-4′-(trifluoromethyl)biphenyl-2-yl]carbonyl}amino)phenyl]acetoxy}methyl)-2-methyl-3-oxoisoindoline-1-carboxylate]",61,6.4,98,96,9.38,–
"CCOC(=O)[C@]1(COC(=O)Cc2ccc(NC(=O)c3cccc(OC)c3-c3ccc(C(F)(F)F)cc3)c(C(=O)N(C)C)c2)c2ccccc2C(=O)N1C [Example 71, ethyl (1R)-1-({2-[3-(dimethylcarbamoyl)-4-({[6-methoxy-4′-(trifluoromethyl)biphenyl-2-yl]carbonyl}amino)phenyl]acetoxy}methyl)-2-methyl-3-oxoisoindoline-1-carboxylate]",45,5.3,125,94,9.75,–
"CCOC(=O)[C@]1(COC(=O)Cc2ccc(NC(=O)c3ccccc3-c3ccc(C(C)C)cc3)c(C(=O)N(C)C)c2)c2ccccc2C(=O)N1C [Example 73, ethyl (1R)-1-({2-[3-(dimethylcarbamoyl)-4-{[(4′-isopropylbiphenyl-2-yl)carbonyl]amino}phenyl]acetoxy}methyl)-2-methyl-3-oxoisoindoline-1-carboxylate]",–,–,–,–,9.79,–
"CCOC(=O)[C@]1(COC(=O)Cc2ccc(NC(=O)c3ccccc3-c3ccccc3)c(C(=O)N(C)C)c2)c2ccccc2C(=O)N1C [Example 74, ethyl (1R)-1-[(2-{4-[(biphenyl-2-ylcarbonyl)amino]-3-(dimethylcarbamoyl)phenyl}acetoxy)methyl]-2-methyl-3-oxoisoindoline-1-carboxylate]",–,–,–,–,8.89,–
"CCOC(=O)[C@]1(COC(=O)Cc2ccc(NC(=O)c3ccccc3-c3ccccc3OC)c(C(=O)N(C)C)c2)c2ccccc2C(=O)N1C [Example 75, ethyl (1R)-1-({2-[3-(dimethylcarbamoyl)-4-{[(2′-methoxybiphenyl-2-yl)carbonyl]amino}phenyl]acetoxy}methyl)-2-methyl-3-oxoisoindoline-1-carboxylate]",–,–,–,–,8.38,–
"CCOC(=O)[C@]1(COC(=O)Cc2ccc(NC(=O)c3ccccc3-c3ccc(OC(C)C)cc3)c(C(=O)N(C)C)c2)c2ccccc2C(=O)N1C [Example 77, Ethyl (1R)-1-({2-[3-(dimethylcarbamoyl)-4-{[(4′-isopropoxybiphenyl-2-yl)carbonyl]amino}phenyl]acetoxy}methyl)-2-methyl-3-oxoisoindoline-1-carboxylate]",–,–,–,–,–,9.92
